PMC8244865, “Recruitment of phospholipase Cγ1 to the non-structural membrane protein pK15 of Kaposi Sarcoma-associated herpesvirus promotes its Src-dependent phosphorylation” (PLoS Pathogens, 2021)

B1: pK15 CT^WT: pK15 cytoplasmic tail fused to GST at its N-terminal end, phosphorylated in vitro by Src (protein)
chain: SQLLNEVELQEVNRDPPNVFGYASILVSGAEESREPSPQPDQSGMSILRVDGGSAFRIDTAQAATQPTDDLYEEVLFPRN
modifications: tyrosine-phosphorylated in vitro by Src; sites not stated for this construct; left off: GST, N-terminal, kept

Tests used:
[1] = tested on: PLCγ1 cSH2 domain (in tSH2 aa 545–772); experiment: crystal structure with truncated PLCγ1 tSH2, cSH2 site; type: binding; conditions: truncated tSH2 (aa 545–772), resolution 2.1 Å
Protocol: A shortened version of the PLCγ1 tSH2 domain (aa 545–772) lacking the linker peptide connecting the PLCγ1 cSH2 and SH3 domains (see Results section) was cloned into a pET28a vector carrying an N-terminal His Tag and a SUMO sequence. Expression was carried out in E. coli and the protein was purified to homogeneity as described above. His-Tag and SUMO were proteolytically removed using SUMO protease (SIGMA) following the manufacturer’s instructions, and the cleaved protein purified on a HisTrap column. Fractions containing cleaved protein were further purified by size exclusion chromatography (SEC) using a Superdex 75 26/600 column (GE Healthcare) equilibrated with 50mM Tris pH7.5, 150mM NaCl and 1mM TCEP buffer. The purified protein in SEC buffer was added to lyophilized phosphorylated 12mer pK15 peptide (DDLpYEEVLFPRN) in a 1:8 molar ratio (Protein: peptide) at a final concentration of 3mg/ml of peptide and 7.5mg/ml protein. Crystals were grown at 293 K using the sitting-drop vapor diffusion method in drops containing 1μl protein solution mixed with 1 μL reservoir solution containing 30% PEG 4000, 0.1M TrisHCl pH 8.5 and 0.2M sodium acetate. The crystals were flash frozen in the mother liquor containing 30% ethylene glycol and diffraction data were collected at P13 at DESY-Hamburg. Data were processed, scaled and reduced with XDS [75], Pointless and programs from the CCP4 suite. […]

[2] = tested on: PLCγ1 nSH2 domain; experiment: AlphaLISA, isolated PLCγ1 nSH2; type: binding; conditions: phosphorylated; 300 nM each protein; domain tested individually
Protocol: Fig 4 The PLCγ1 cSH2 domain is required for the binding of PLCγ1 to phosphorylated pK15 in vitro and may serve as a dominant-negative inhibitor. GST-fused pK15 cytoplasmic tail WT (A), or its truncated mutant N2 [51] (B), were phosphorylated in vitro by 2xStrep-Src and an AlphaLISA was performed with the indicated His-tagged fragments of PLCγ1. Mean and standard deviation from at least two independent experiments with two technical replicates each are depicted. GST fusion proteins of the N1 (C) or N2 (D) truncation mutants of the pK15 cytoplasmic tail were phosphorylated in vitro by 2xStrep-Src and their interaction with recombinant purified PLCγ1 tSH2 (tandem SH2) or SA (γ-specific array) domains was measured by AlphaLISA in the presence of increasing concentrations (300 nM, 600 nM, 900 nM, 1200 nM) of the purified PLCγ1 cSH2. […] After 48h lysates were collected and analysed by Western blot using an antibody to PLCγ1 pY^783 to assess the level of PLCγ1 phosphorylation. (F) The intensities of the pPLCγ1 bands shown in panel E were quantified by densitometry, normalized to the values obtained with the empty vector (EV) in the presence of pK15, and plotted as relative values. […]
His-tagged PLCγ1 (SA, tSH2 or the isolated SH2 domains) was incubated at room temperature with GST-tagged K15P or its mutants for 1 hour. […] Emission at 615 nm was detected on BioTek Synergy 2 plate reader.

Row | Molecule | binding site occupancy in crystal structure [1] | interaction (AlphaLISA) [2]
1 | DDLpYEEVLFPRN [pK15 12mer, phosphorylated peptide representing the last 12 amino acids of pK15 CT (DDLp…)] | unambiguously bound to the PLCγ1 cSH2 domain | –
2 | B1 | – | not the nSH2 domain
